In ChEMBL document CHEMBL4619815, “Hitting a Moving Target: Simulation and Crystallography Study of ATAD2 Bromodomain Blockers” (ACS Med Chem Lett, 2020):

Each compound was assayed against T1, ATPase family AAA domain-containing protein 2 (Homo sapiens, UniProt Q6PL18) (assay: Binding affinity to recombinant human N-terminal GST-tagged ATAD2 bromodomain (981 to 1146 residues) expressed in Escherichia coli at 10 degree C by isothermal titration calorimetry).
T1 sequence (Q6PL18 whole entry): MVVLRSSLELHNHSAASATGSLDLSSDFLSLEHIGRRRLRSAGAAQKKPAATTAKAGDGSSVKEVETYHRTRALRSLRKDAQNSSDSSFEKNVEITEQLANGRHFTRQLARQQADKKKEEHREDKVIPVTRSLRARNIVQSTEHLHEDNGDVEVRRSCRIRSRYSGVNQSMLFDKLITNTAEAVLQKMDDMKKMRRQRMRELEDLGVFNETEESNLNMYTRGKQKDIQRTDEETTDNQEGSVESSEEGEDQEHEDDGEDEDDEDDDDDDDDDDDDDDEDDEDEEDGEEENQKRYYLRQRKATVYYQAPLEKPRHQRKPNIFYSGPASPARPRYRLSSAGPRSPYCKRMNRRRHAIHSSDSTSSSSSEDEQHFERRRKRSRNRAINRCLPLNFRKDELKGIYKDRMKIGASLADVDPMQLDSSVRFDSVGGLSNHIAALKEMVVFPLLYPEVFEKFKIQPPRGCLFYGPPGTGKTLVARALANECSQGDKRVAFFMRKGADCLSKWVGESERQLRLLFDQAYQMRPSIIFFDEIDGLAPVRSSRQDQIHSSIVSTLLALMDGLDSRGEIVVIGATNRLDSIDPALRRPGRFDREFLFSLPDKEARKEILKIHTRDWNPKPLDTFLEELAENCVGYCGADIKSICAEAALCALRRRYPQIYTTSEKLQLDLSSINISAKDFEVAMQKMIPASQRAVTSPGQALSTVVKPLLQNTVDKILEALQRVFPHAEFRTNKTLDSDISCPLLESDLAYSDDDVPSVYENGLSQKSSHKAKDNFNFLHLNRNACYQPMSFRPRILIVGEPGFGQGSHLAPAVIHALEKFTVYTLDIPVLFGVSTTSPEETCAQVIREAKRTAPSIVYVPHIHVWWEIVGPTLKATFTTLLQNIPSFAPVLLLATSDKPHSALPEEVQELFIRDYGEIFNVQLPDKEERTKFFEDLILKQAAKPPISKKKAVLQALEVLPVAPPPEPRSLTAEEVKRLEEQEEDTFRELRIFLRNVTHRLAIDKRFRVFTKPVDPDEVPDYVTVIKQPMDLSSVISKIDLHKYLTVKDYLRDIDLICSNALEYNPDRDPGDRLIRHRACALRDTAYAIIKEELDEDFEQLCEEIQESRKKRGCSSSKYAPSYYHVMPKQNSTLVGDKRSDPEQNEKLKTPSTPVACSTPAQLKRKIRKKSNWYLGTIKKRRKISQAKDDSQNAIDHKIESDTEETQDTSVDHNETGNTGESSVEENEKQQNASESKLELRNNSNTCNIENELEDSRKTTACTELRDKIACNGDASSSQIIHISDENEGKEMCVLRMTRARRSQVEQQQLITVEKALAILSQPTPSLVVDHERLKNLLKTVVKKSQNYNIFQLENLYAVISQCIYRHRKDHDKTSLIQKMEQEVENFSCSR

Row | Structure (SMILES) | Kd [µM]
1 | CC(=O)c1csc(NC(=O)[C@H]2CNCCN2CCC2CCC(F)(F)CC2)n1 | 25

What follows are compounds tested against T1, ATPase family AAA domain-containing protein 2 (assay: Inhibition of recombinant human N-terminal GST-tagged ATAD2 bromodomain (981 to 1146 residues) expressed in Escherichia coli using biotinylated peptide SGRGK(Ac)GGKGLGKGGAKRHRKVLRDNGSGS as substrate incubated for 3 hrs by TR-FRET assay).

Row | Structure (SMILES) | IC50 [µM]
2 | CC(=O)c1nc(NC(=O)C(C)(C)N)sc1-c1cncc(N)c1 | > 150
3 | CC(=O)c1csc(NC(=O)C(C)(C)N)n1 | > 150
4 | CC(=O)c1nc(NC(=O)[C@@H](C)N)sc1-c1cccc(O)c1 | > 150
5 | CC(=O)c1nc(NC(=O)[C@@H](C)N)sc1-c1cccnc1 | 95
6 | CC(=O)c1nc(NC(=O)[C@@H](C)NC(=N)N)sc1-c1cncc(N)c1 | > 150
7 | CC(=O)c1csc(NC(=O)[C@@H](C)NC(=N)N)n1 | 140
8 | CC(=O)c1nc(NC(=O)[C@H]2CNCCN2)sc1-c1ccc(C(=O)N2CCOCC2)cc1 | > 150
9 | CC(=O)c1csc(NC(=O)[C@@H](C)N)n1 | 336
10 | CC(=O)c1csc(NC(=O)[C@H]2CNCCN2CCC2CCC(F)(F)CC2)n1 | 15
11 | CC(=O)c1nc(NC(=O)[C@H]2CNCCN2)sc1-c1ccc(N2CCCC2=O)cc1 | > 150
12 | C[C@@H](N)C(=O)Nc1nc2c(s1)CCCC2=O | > 150
13 | CC(=O)c1nc(NC(=O)[C@@H](C)N)sc1-c1cncc(N)c1 | > 150
14 | COc1cccc(-c2sc(NC(=O)[C@@H](C)N)nc2C(C)=O)c1 | > 150
15 | CC(=O)c1nc(NC(=O)C2(N)CCC2)sc1-c1cncc(N)c1 | 80
16 | CC(=O)c1nc(NC(=O)[C@H]2CNCCN2CCC2CCC(F)(F)CC2)sc1-c1cncc(N)c1 | > 150
17 | CC(=O)c1nc(NC(=O)[C@@H](C)N)sc1-c1cccc(N)c1 | > 150
18 | CC(=O)c1csc(NC(=O)[C@H]2CNCCN2)n1 | > 150
19 | CC(=O)c1nc(NC(=O)[C@H]2CNCCN2)sc1-c1cncc(N)c1 | > 150
